Experiments:
[1] = system: cd41:eGFP+ HSCs emerging from flk1:mCherry+ endothelial cells; assay: Time-lapse confocal imaging of cd41:eGFP+ HSCs emerging from flk1:mCherry+ endothelial cells in transgenic embryos; format: in vivo, zebrafish; conditions: 26-42 hpf
Procedure: Mice were purchased Cd45.2 (C57BL6/J) and Cd45.1 (SJL) from The Jackson Laboratory and zebrafish morpholinos from GeneTools. Microangiography was performed by injecting fluorescent-labeled dextran dye in the atrium of zebrafish heart and its passage was recorded using live imaging. Immunostaining of zebrafish heart and mouse AGM were analyzed using an inverted fluorescent microscope. Cardiac tamponade, heart rate, and pulse frequency were analyzed in zebrafish embryos using bright field imaging or time-lapse confocal microscopy. The movement of red blood cells in blood vessels was analyzed as well as the endothelial-to-HSC transition in zebrafish transgenic embryos using time-lapse confocal imaging.
Zebrafish embryos were treated with the following chemical modulators in E3 fish media: 100 uM L-NAME (Fisher Scientific), 50 uM Digitoxigenin (Sigma), 25-50 uM Yoda1 (Cayman Chemical), 1 uM Nanaomycin (Nana; Fisher Scientific), 100 uM Gadolinium chloride (GdCl3; Sigma), 5-10 uM 4α-phorbol 12, 13-didecanaote (4Apdd; Sigma), or GSK205 (10 uM).
cd41: eGFP were crossed with flk1:mCherry zebrafish and flk1:mCherry with lcr:eGFP zebrafish and injected morpholino in their transgenic embryos. Transgenic embryos were mounted in low-melting-point agarose and a spinning-disk confocal microscope was used to perform time-lapse confocal imaging of cd41:eGFP^+ HSCs emerging from flk1^+ endothelium from 30 to 42 hpf. The relative movement of lcr:eGFP^+ red blood cells was analyzed in the context of flk1:mCherry^+ endothelium. We performed image analysis using IMARIS (Bitplane) software.

E11.5 AGM cells = assay: RNA-sequencing / whole transcriptome analyses of treated E11.5 AGM cells; format: cell-based, mouse; conditions: Venn comparison of up-regulated genes, endothelial-to-HSC transition
Procedure: RNA-sequencing analyses were performed to measure gene expression patterns in mouse AGM treated with cyclic strain or pharmacological modulators. Using computational algorithms, hierarchical clustering was performed of differentially expressed genes as well as measured their overrepresented biological processes and pathways. Gene expression clusters of differentially expressed genes were analyzed and their mean expression level across cell populations compared. Next, Venn comparison of up- and down-genes was constructed to analyze candidate(s) important for cyclic strain- or pharmacological modulator(s)-mediated the endothelial-to-HSC transition. Furthermore, Dnmt3b and Dnmt3a protein expressions were analyzed in nuclear fractions of mouse AGM cells using EPIQUIK methyltransferase assay kits. Data are presented as mean±s.d. unless otherwise noted. Statistical analyses were performed by paired or un-paired Student's t-tests. […]
Total RNA from E11.5 mouse AGM explant cultures was isolated (control, stretch, Yoda1 and 4αPDD conditions) with the RNAEASY MiniKit (QIAGEN). […] We mapped our sequenced read fragments to the mouse reference genome GRCm38 (ENSEMBL release 69) using the Genomic Short-Read Nucleotide Alignment program (version 2012 Jul. 20). […] Gene expression clusters of differentially expressed genes were analyzed and their mean expression level across cell populations compared. […]

Clc1cccc(Cl)c1CSc1nnc(-c2cnccn2)s1 [Yoda1, 2-[5-[[(2,6-Dichlorophenyl)methyl]thio]-1,3,4-thiadiazol-2-yl]-pyrazine]
HSC formation (endothelial-to-HSC transition) ([1]; control embryos): stimulates HSC formation | HSC formation (endothelial-to-HSC transition) ([1]; sih-MO embryos): rescues HSC formation | Dnmt3b transcript expression (E11.5 AGM cells): specifically stimulate | Gimap6 transcript expression (E11.5 AGM cells): specifically stimulate

Source: patent US20230212517A1, “METHODS FOR GENERATING HEMATOPOIETIC STEM CELLS” (The Brigham and Women's Hospital, Inc., priority 2018, published 2023)
